# Patent US20080096807A1, “Cyclic vasoactive intestinal peptide receptor-2 agonists” (priority 2006, published 2008)
# Bridge positions count the residues as written; N and C are the ends. Square brackets hold non-standard residues; d marks the D form. Peptide text beside a SMILES is read from it. ξ: configuration not given here. Thr(3ξ) = CC(O)[C@H](N)C(=O)O; αMeV = CC(C)[C@](C)(N)C(=O)O; Nle = CCCC[C@H](N)C(=O)O
# How the values were obtained:
# VPAC2 receptor = target: T1, VPAC2 receptor (Homo sapiens, UniProt P41587); assay: Sup-T1 cAMP agonist assay; type: cell-based; conditions: human T-lymphoid cell line Sup-T1 expressing VPAC2 receptor; cAMP EIA; 5 min at room temperature; read-out: Sup-T1 cAMP EC50
# T1 construct: The human T-lymphoid cell line Sup-Ti, which expresses the VPAC2 receptor; host or cells: Sup-T1 (Sup-Ti [sic]) human T-lymphoid cell line
# T1 sequence (P41587 24-438): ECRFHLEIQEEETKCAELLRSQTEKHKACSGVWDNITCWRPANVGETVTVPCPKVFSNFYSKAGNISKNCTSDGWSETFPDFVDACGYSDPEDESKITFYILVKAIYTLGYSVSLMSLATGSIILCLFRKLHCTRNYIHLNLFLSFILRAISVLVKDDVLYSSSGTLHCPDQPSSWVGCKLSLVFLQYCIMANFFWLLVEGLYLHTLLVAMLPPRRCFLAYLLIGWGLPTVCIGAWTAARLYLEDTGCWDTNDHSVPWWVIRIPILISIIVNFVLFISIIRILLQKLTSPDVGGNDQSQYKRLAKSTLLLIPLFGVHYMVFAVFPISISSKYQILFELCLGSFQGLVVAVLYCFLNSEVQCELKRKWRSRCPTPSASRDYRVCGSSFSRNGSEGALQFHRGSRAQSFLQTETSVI
# Outline: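 Sup-T1 human T-lymphoid cells with endogenous VPAC2 (RPMI 1640, 25 mM HEPES, 10% FBS) were plated at 4×10^4 cells/well and exposed to compound for 5 min at room temperature. After lysis, cAMP was measured by enzyme immunoassay. EC50 came from a sigmoidal fit of 7-concentration dose-response data.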
# [1] = test system: LPS-induced lung inflammation in male C57BL/6 mice; assay: LPS-induced lung inflammation in male C57BL/6 mice (BAL neutrophilia); type: in vivo; conditions: Dose 0.01%, BAL fluid neutrophilia
# [2] = test system: methacholine-induced bronchospasm in mice; assay: Methacholine-induced bronchospasm in mice (whole body plethysmography, Penh); type: in vivo; conditions: balb/c mice; drug by aerosol for 20 minutes before spasmogen challenge; relative to vehicle
# Method: Respiratory function is measured in conscious, freely moving mice using whole body plethysmographs (WBP) from BUXCO Electronics, Inc. (Troy, N.Y.). WBP chambers allow animals to move freely within the chamber while respiratory function is measured. Eight chambers are used simultaneously so that eight mice can be measured at the same time. Each WBP chamber is connected to a bias flow regulator to supply a smooth, constant flow of fresh air during testing. A transducer attached to each chamber detects pressure changes that occur as the animal breathes. Pressure signals are amplified by a MAX II Strain Gauge preamplifier and analyzed by the Biosystem XA software supplied with the system (BUXCO Electronics, Inc.). Pressure changes within each chamber are calibrated prior to testing by injecting exactly 1 ml of air through the injection port and adjusting the computer signal accordingly. Mice are placed in the WBP chambers and allowed to acclimate for 10 minutes prior to testing. Testing is conducted by letting the animals move and breathe freely for 15 minutes while the following parameters are measured: Tidal Volume (ml), Respiratory Rate (breaths per minutes), Minute Volume (tidal volume multiplied by respiratory rate, ml/min), Inspiratory Time (sec), Expiratory Time (sec), Peak Inspiratory Flow (ml/sec), and Peak Expiratory Flow (ml/sec). Raw data for each of the parameters listed above are captured in the software database and averaged once per minute to give a total of 15 data points per parameter. The average of the 15 data points is reported. Accumulated Volume (ml) is a cumulative value (not averaged) and represents the sum of all tidal volumes for the 15-minute test session. The protocol is customized to include measurements before, during, and after a spasmogen challenge to determine Penh. Dose-response effects of a particular spasmogen (i.e. methacholine (MCh), acetylcholine, etc.) are obtained by giving nebulized aerosol (30-60 sec exposure) at approximately 5-10 min intervals. Mice (balb/c) are treated with vehicle (2% DMSO in H2O) or drug dissolved in 4 ml vehicle for 20 minutes by aerosol, as described above, prior to spasmogen challenge. Penh is determined at 5, 30 and 60 minutes post-challenge. Data are reported as percent inhibition of Penh relative to vehicle.
# [3] = target: T2, human neutrophil elastase (Homo sapiens, UniProt P08246); assay: Peptide stability to neutrophil elastase (RP HPLC ESI MS); conditions: halftime with human neutrophil elastase 1 to 2 μg/mL in PBS, ambient temperature, normalized to halftime of the reference standard
# T2 sequence (P08246 30-247 limits assumed): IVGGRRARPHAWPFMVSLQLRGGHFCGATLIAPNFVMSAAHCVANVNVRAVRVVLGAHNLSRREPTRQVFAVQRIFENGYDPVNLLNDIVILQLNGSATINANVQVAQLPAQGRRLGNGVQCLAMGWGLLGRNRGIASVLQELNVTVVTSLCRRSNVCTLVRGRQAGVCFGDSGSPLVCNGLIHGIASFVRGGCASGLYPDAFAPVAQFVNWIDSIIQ
# [4] = target: Ac-His-Ala-Asp-Ala-MeVal-Phe-Thr-Glu-Asn-Tyr-Thr-Lys-Leu-Arg-Lys-Gln-Nle-Ala-Ala-Lys-Lys-Tyr-Leu-Asn-Asp-Leu-Leu-Lys-Gly-Gly-Thr-NH2 (Artificial Sequence); conditions: scale: relative to the halftime of the reference standard
# [5] = target: Ac-His-Ala-Asp-Ala-MeVal-Phe-Thr-Glu-Asn-Tyr-Thr-Lys-Leu-Arg-Lys-Gln-Nle-Ala-Ala-Lys-Lys-Tyr-Leu-Asn-Asp-Leu-Lys-Lys-Gly-Gly-Thr-NH2 (Artificial Sequence); conditions: scale: relative to the halftime of the reference standard
# [6] = target: Ac-His-Ser-Asp-Ala-MeVal-Phe-Thr-Glu-Asn-Tyr-Thr-Lys-Leu-Arg-Lys-Arg-Nle-Ala-Ala-Lys-Lys-Tyr-Leu-Asn-Asp-Leu-Lys-Lys-Gly-Gly-Thr-NH2 (Artificial Sequence); conditions: scale: relative to the halftime of the reference standard
# [7] = target: Ac-His-Ser-Asp-Ala-MeVal-Phe-Thr-Glu-Asn-Tyr-thr-Lys-Leu-Arg-Lys-Gln-Nle-Ala-Ala-Lys-Lys-Tyr-Leu-Asn-Asp-Leu-Leu-Lys-Gly-Gly-Thr-NH2 (Artificial Sequence); conditions: scale: relative to the halftime of the reference standard
Compound,EC50 (VPAC2 receptor) [nM],Inhibition of LPS-induced neutrophilia [1],Inhibition of Penh at 5 minutes post-challenge [2],Relative elastase stability [3],Relative elastase stability [4],Relative elastase stability [5],Relative elastase stability [6],Relative elastase stability [7]
CCCC[C@H](NC(=O)[C@H](CCC(N)=O)NC(=O)[C@H](CCCCN)NC(=O)[C@H](CCCNC(=N)N)NC(=O)[C@H](CC(C)C)NC(=O)[C@H](CCCCN)NC(=O)[C@@H](NC(=O)[C@H](Cc1ccc(O)cc1)NC(=O)[C@H](CC(N)=O)NC(=O)[C@H](CCC(=O)O)NC(=O)[C@@H](NC(=O)[C@H](Cc1ccccc1)NC(=O)[C@@](C)(NC(=O)[C@H](C)NC(=O)[C@H](CC(=O)O)NC(=O)[C@H](CO)NC(=O)[C@H](Cc1c[nH]cn1)NC(C)=O)C(C)C)C(C)O)C(C)O)C(=O)N[C@@H](C)C(=O)N[C@@H](C)C(=O)N[C@@H](CCCCN)C(=O)N[C@H]1CCCCNC(=O)C[C@@H](C(=O)N[C@@H](CC(C)C)C(=O)N[C@@H](CCCCN)C(=O)N[C@@H](CCCCN)C(=O)NCC(=O)NCC(=O)N[C@H](C(N)=O)C(C)O)NC(=O)[C@H](CC(N)=O)NC(=O)[C@H](CC(C)C)NC(=O)[C@H](Cc2ccc(O)cc2)NC1=O (stereo partly shown) [Example 6] (Ac-HSDA[αMeV]F[Thr(3ξ)]ENY[Thr(3ξ)]KLRKQ[Nle]AAKKYLNDLKKGG[Thr(3ξ)]-NH2; lactam 21-25),2.35,++ (++ >30%),++ (++ <50%),6,–,–,–,–
CCCC[C@H](NC(=O)[C@H](CCC(N)=O)NC(=O)[C@H](CCCCN)NC(=O)[C@H](CCCNC(=N)N)NC(=O)[C@H](CC(C)C)NC(=O)[C@H](CCCCN)NC(=O)[C@@H](NC(=O)[C@H](Cc1ccc(O)cc1)NC(=O)[C@H](CC(N)=O)NC(=O)[C@H](CCC(=O)O)NC(=O)[C@@H](NC(=O)[C@H](Cc1ccccc1)NC(=O)[C@H](CO)NC(=O)[C@H](C)NC(=O)[C@H](CC(=O)O)NC(=O)[C@H](C)NC(=O)[C@H](Cc1c[nH]cn1)NC(C)=O)C(C)O)C(C)O)C(=O)N[C@@H](C)C(=O)N[C@@H](C)C(=O)N[C@@H](CCCCN)C(=O)N[C@H]1CCCCNC(=O)C[C@@H](C(=O)N[C@@H](CC(C)C)C(=O)N[C@@H](CCCCN)C(=O)N[C@@H](CCCCN)C(=O)NCC(=O)NCC(=O)N[C@H](C(N)=O)C(C)O)NC(=O)[C@H](CC(N)=O)NC(=O)[C@H](CC(C)C)NC(=O)[C@H](Cc2ccc(O)cc2)NC1=O (stereo partly shown) [Example 12] (Ac-HADASF[Thr(3ξ)]ENY[Thr(3ξ)]KLRKQ[Nle]AAKKYLNDLKKGG[Thr(3ξ)]-NH2; lactam 21-25),7.4,+ (+ 10-30%),+ (+ >50%),5.2,–,–,–,–
CCCC[C@H](NC(=O)[C@H](CCCNC(=N)N)NC(=O)[C@H](CCCCN)NC(=O)[C@H](CCCNC(=N)N)NC(=O)[C@H](CC(C)C)NC(=O)[C@H](CCCCN)NC(=O)[C@@H](NC(=O)[C@H](Cc1ccc(O)cc1)NC(=O)[C@H](CC(N)=O)NC(=O)[C@H](CCC(=O)O)NC(=O)[C@@H](NC(=O)[C@H](Cc1ccccc1)NC(=O)[C@H](CO)NC(=O)[C@H](C)NC(=O)[C@H](CC(=O)O)NC(=O)[C@H](C)NC(=O)[C@H](Cc1c[nH]cn1)NC(C)=O)C(C)O)C(C)O)C(=O)N[C@@H](CCCCN)C(=O)N[C@@H](C)C(=O)N[C@@H](CCCCN)C(=O)N[C@H]1CCCCNC(=O)C[C@@H](C(=O)N[C@@H](CC(C)C)C(=O)N[C@@H](CCCCN)C(=O)N[C@@H](CCCCN)C(=O)NCC(=O)NCC(=O)N[C@H](C(N)=O)C(C)O)NC(=O)[C@H](CC(N)=O)NC(=O)[C@H](CC(C)C)NC(=O)[C@H](Cc2ccc(O)cc2)NC1=O (stereo partly shown) [Example 18] (Ac-HADASF[Thr(3ξ)]ENY[Thr(3ξ)]KLRKR[Nle]KAKKYLNDLKKGG[Thr(3ξ)]-NH2; lactam 21-25),276,–,+ (+ >50%),5.1,–,–,–,–
CCCC[C@H](NC(=O)[C@H](CCCNC(=N)N)NC(=O)[C@H](CCCCN)NC(=O)[C@H](CCCNC(=N)N)NC(=O)[C@H](CC(C)C)NC(=O)[C@H](CCCCN)NC(=O)[C@@H](NC(=O)[C@H](Cc1ccc(O)cc1)NC(=O)[C@H](CC(N)=O)NC(=O)[C@H](CCC(=O)O)NC(=O)[C@@H](NC(=O)[C@H](Cc1ccccc1)NC(=O)[C@H](CO)NC(=O)[C@H](C)NC(=O)[C@H](CC(=O)O)NC(=O)[C@H](CO)NC(=O)[C@H](Cc1c[nH]cn1)NC(C)=O)C(C)O)C(C)O)C(=O)N[C@@H](CCC(=O)O)C(=O)N[C@@H](C)C(=O)N[C@@H](CCCCN)C(=O)N[C@H]1CCCCNC(=O)C[C@@H](C(=O)N[C@@H](CC(C)C)C(=O)N[C@@H](CC(C)C)C(=O)N[C@@H](CCCCN)C(=O)NCC(=O)NCC(=O)N[C@H](C(N)=O)C(C)O)NC(=O)[C@H](CC(N)=O)NC(=O)[C@H](CC(C)C)NC(=O)[C@H](Cc2ccc(O)cc2)NC1=O (stereo partly shown) [Example 19] (Ac-HSDASF[Thr(3ξ)]ENY[Thr(3ξ)]KLRKR[Nle]EAKKYLNDLLKGG[Thr(3ξ)]-NH2; lactam 21-25),68.4,+ (+ 10-30%),+ (+ >50%),3.3,–,–,–,–
"Elastase (Human Neutrophil, Calbiochem, Cat # 324681) (from UniProt P08246) (enzyme)",–,–,–,–,3.6,5.7,1.8,3.4
